From publication PMC9737972, “Dual LSD1 and HDAC6 Inhibition Induces Doxorubicin Sensitivity in Acute Myeloid Leukemia Cells” (Cancers, 2022)
Like-named read-outs stand apart in the source and are kept apart here.

Key:
[1] = molecular target: T1, Human recombinant C-ter-His-FLAG-HDAC1 (Homo sapiens, UniProt Q13547); test: HDAC-Glo I/II enzyme assay, HDAC1; assay type: biochemical; settings: ± standard error, three independent measurements
T1 construct: His (C); FLAG (C); purchased BPS Bioscience 50051
T1 sequence (Q13547 whole entry): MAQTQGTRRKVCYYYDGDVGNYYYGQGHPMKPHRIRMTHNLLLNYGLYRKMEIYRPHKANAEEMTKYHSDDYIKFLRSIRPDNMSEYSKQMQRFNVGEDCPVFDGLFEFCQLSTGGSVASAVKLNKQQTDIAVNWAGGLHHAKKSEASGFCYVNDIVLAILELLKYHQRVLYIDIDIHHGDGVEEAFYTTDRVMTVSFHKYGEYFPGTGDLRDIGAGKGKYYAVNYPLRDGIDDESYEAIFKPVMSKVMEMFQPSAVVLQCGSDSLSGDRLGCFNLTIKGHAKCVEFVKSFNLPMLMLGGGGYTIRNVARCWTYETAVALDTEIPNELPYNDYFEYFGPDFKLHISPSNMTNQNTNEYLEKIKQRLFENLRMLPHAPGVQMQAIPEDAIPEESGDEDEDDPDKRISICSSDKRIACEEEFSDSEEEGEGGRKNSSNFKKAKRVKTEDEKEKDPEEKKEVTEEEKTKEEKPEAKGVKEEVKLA

HDAC-3/NcoR2 = molecular target: T2, HDAC-3/NcoR2 (Homo sapiens, UniProt O15379); test: HDAC-Glo I/II enzyme assay, HDAC3; assay type: biochemical; settings: ± standard error, three independent measurements
T2 construct: purchased BPS Bioscience 50003
T2 sequence (O15379 whole entry): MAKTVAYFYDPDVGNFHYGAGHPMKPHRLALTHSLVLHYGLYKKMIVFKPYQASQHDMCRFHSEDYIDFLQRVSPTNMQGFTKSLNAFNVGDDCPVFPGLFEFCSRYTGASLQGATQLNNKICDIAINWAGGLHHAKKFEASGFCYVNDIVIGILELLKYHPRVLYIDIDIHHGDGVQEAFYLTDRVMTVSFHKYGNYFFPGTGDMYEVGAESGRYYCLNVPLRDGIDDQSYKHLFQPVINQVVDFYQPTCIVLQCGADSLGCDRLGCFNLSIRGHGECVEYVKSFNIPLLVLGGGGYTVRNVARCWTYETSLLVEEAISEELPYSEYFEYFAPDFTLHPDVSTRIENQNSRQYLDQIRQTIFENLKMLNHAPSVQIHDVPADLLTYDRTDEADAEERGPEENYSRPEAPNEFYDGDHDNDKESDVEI
T2 sequence (Q9Y618 395-489 partner limits assumed): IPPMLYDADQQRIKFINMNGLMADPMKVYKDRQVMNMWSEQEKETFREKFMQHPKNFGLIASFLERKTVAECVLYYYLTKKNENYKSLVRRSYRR

N-ter-GST-HDAC-6 = molecular target: T3, N-ter-GST-HDAC-6 (Homo sapiens, UniProt Q9UBN7); test: HDAC-Glo I/II enzyme assay, HDAC6; assay type: biochemical; settings: ± standard error, three independent measurements
T3 construct: GST (N); purchased BPS Bioscience 50006
T3 sequence (Q9UBN7 1-1215): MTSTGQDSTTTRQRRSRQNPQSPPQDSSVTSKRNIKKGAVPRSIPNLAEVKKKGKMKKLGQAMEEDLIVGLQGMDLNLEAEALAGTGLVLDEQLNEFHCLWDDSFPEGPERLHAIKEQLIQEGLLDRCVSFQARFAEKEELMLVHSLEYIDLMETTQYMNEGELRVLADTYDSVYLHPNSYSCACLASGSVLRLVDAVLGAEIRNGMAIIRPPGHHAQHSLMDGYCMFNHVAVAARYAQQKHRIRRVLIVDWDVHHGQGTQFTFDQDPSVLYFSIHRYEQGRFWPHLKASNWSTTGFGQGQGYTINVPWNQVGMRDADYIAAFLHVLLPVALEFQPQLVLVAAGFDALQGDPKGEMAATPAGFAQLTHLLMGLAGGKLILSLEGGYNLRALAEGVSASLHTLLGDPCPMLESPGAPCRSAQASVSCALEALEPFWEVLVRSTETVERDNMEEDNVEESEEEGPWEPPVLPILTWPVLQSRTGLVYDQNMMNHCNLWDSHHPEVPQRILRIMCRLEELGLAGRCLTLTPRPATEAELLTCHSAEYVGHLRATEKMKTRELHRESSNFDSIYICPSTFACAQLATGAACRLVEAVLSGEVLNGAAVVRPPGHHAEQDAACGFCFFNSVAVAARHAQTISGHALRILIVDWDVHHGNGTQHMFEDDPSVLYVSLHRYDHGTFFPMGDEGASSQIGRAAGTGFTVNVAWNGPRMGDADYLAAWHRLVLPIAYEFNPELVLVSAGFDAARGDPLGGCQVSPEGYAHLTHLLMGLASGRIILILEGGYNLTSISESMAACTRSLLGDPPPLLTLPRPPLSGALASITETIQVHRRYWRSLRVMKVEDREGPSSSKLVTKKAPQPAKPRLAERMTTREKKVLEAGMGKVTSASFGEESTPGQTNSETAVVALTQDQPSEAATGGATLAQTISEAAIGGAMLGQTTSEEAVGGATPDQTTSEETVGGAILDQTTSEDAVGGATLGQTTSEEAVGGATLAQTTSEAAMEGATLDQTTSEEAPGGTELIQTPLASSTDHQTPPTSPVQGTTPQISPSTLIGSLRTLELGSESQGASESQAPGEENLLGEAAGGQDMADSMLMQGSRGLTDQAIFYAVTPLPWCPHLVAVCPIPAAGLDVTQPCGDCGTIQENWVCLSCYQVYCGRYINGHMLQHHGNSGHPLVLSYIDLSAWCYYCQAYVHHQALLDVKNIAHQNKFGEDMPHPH

C-terminal His-tag-HDAC8 = molecular target: T4, C-terminal His-tag-HDAC8 (Homo sapiens, UniProt Q9BY41); test: HDAC-Glo I/II enzyme assay, HDAC8; assay type: biochemical; settings: ± standard error, three independent measurements
T4 construct: His (C); purchased BPS Bioscience 50008
T4 sequence (Q9BY41 1-377): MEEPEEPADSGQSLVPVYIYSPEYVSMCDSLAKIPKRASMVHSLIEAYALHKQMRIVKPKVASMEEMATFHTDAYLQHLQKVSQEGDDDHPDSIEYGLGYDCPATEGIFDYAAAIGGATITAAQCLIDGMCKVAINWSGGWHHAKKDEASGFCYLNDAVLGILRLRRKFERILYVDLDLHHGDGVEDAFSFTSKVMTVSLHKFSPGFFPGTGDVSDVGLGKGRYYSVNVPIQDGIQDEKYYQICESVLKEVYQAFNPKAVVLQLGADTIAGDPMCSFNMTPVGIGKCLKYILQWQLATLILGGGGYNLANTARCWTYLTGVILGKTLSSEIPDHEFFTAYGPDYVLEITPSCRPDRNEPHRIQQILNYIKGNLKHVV

THP-1 = test: Cell Titer-Glo cell viability, THP-1; assay type: cell-based; settings: Homo sapiens, read-out: IC50 cell viability THP-1
MOLM-13 [2] = test: Cell Titer-Glo cell viability, MOLM-13; assay type: cell-based; settings: Homo sapiens, read-out: IC50 cell viability MOLM-13
K-562 = test: Cell Titer-Glo cell viability, K-562; assay type: cell-based; settings: Homo sapiens, read-out: IC50 cell viability K-562
Jurkat = test: Cell Titer-Glo cell viability, Jurkat; assay type: cell-based; settings: Homo sapiens, 120 h, read-out: IC50 cell viability Jurkat
[3] = test system: LSD1 and HDAC substrates in THP-1 cells; test: Western blot of methylation and acetylation levels of LSD1 and HDAC substrates; assay type: cell-based; settings: for nuclear histone H3 acetylation (H3K18ac and H3K27ac levels), change vs DMSO: 24 h (ricolinostat 0.75 μM or 4 μM)
MOLM-13 [4] = test: Combination treatment with doxorubicin, MOLM-13 cell viability; assay type: cell-based; settings: iDual 0.5 μM, iHDAC6 0.5 μM, GSK2879552 1.25 μM, ricolinostat […], 72 h then + doxorubicin 2 nM 48 h
LSD2 = settings: cited from earlier work
MAOs = settings: cited from earlier work
[5] = cited from earlier work
LSD1 [6] = molecular target: T5, LSD1 (Homo sapiens, UniProt O60341); test: LSD1 MALDI-TOF enzyme assay; assay type: biochemical; parameters: made in house; settings: ± standard error, three independent measurements
LSD1 [7] = molecular target: T5, LSD1; test: Cellular thermal shift assay (CETSA), LSD1; assay type: cell-based; parameters: endogenous in cells; host or cells: THP-1; settings: THP-1 cells, 1 h; 4 μM (methods, Figure 2), Figure S14 legend 500 nM
Method: (§1) THP-1 cells, 1 × 10^7 cells at a density of 1 × 10^6 cells/mL, were treated with 4 μM of test compounds (1 h, 37 °C, 5% CO2). Cells were centrifuged, and the pellet was resuspended with 1 × Phosphate Buffer Saline (Gibco, Grand Island, NY, USA, #10010023) containing 1 × Protease Inhibitor Cocktail (Cell Signaling Technology, Beverly, MA, USA, #5871) and 1 mM phenylmethylsulfonyl fluoride (PMSF, Sigma Aldrich, St. Louis, MO, USA, #10837091001). The suspension volume was divided equally and heated for 3 min at 43–64 °C in a T100 Thermal Cycler (Bio-rad, Hercules, CA, USA). For protein extraction, cells were snap-frozen using liquid nitrogen, thawed twice (25 °C, 1 min), then centrifuged (20,000× g, 15 min, 4 °C). Following centrifugation, protein containing supernatants were denatured at 70 °C for 10 min and loaded on SDS-PAGE gels (Bio-Rad, Hercules, CA, USA, 161-0317). After electrophoresis (100 V and 60 min), proteins were transferred onto PVDF membrane (Bio-Rad #1620177) at 200 mA for 180 min and immunoblotted with primary antibodies (1:10,000 dilution for anti-LSD1 Antibody ab129195 [EPR6825], 1:1000 dilution for Anti-HDAC6 Antibody CST 7558, 1:1000 dilution for Anti-HDAC1 Antibody ab53091, 1:1000 dilution for Anti-HDAC8 Antibody ab187139, 1:5000 dilution for Anti-beta Actin Antibody ab8227) overnight at 4 °C. The next day, membranes were incubated with HRP-conjugated secondary antibodies (1:5000 dilution for Abcam, Cambridge, UK, ab205718) for 1 h at room temperature. The signal was detected with BIORAD Chemi-Doc XRS+ System and by using Immobilon Forte Western HRP Substrate (WBLUF0500).

THP-1 cells = test: Caspase 3/7 and 7-AAD staining (flow cytometry); settings: doxorubicin alone at sublethal concentration (62.5 nM, 48 h)
HDAC6 [8] = molecular target: T6, HDAC6 (Homo sapiens, UniProt Q9UBN7); test: Cellular thermal shift assay (CETSA), HDAC6; assay type: cell-based; settings: THP-1 cells, 1 h; 4 μM (methods, Figure 2), Figure S14 legend 500 nM
T6 construct: endogenous in cells; host or cells: THP-1
T6 sequence (Q9UBN7 1-1215): T3 sequence (Q9UBN7 1-1215)
Method: as §1

HDAC8 = molecular target: T7, HDAC8 (Homo sapiens, UniProt Q9BY41); test: Cellular thermal shift assay (CETSA), HDAC8; assay type: cell-based; settings: THP-1 cells, 1 h; 4 μM (methods, Figure 2), Figure S14 legend 500 nM
T7 construct: endogenous in cells; host or cells: THP-1
T7 sequence (Q9BY41 1-377): T4 sequence (Q9BY41 1-377)
Method: (§2) THP-1 cells, 1 × 10^7 cells at a density of 1 × 10^6 cells/mL, were treated with 4 μM of test compounds (1 h, 37 °C, 5% CO2). Cells were centrifuged, and the pellet was resuspended with 1 × Phosphate Buffer Saline (Gibco, Grand Island, NY, USA, #10010023) containing 1 × Protease Inhibitor Cocktail (Cell Signaling Technology, Beverly, MA, USA, #5871) and 1 mM phenylmethylsulfonyl fluoride (PMSF, Sigma Aldrich, St. Louis, MO, USA, #10837091001). The suspension volume was divided equally and heated for 3 min at 43–64 °C in a T100 Thermal Cycler (Bio-rad, Hercules, CA, USA). For protein extraction, cells were snap-frozen using liquid nitrogen, thawed twice (25 °C, 1 min), then centrifuged (20,000× g, 15 min, 4 °C). Following centrifugation, protein containing supernatants were denatured at 70 °C for 10 min and loaded on SDS-PAGE gels (Bio-Rad, Hercules, CA, USA, 161-0317). […] The signal was detected with BIORAD Chemi-Doc XRS+ System and by using Immobilon Forte Western HRP Substrate (WBLUF0500).

HDAC1 = molecular target: T8, HDAC1 (Homo sapiens, UniProt Q13547); test: Cellular thermal shift assay (CETSA), HDAC1; assay type: cell-based; settings: THP-1 cells, 1 h; 4 μM (methods), Figure S14 legend 500 nM
T8 construct: endogenous in cells; host or cells: THP-1
T8 sequence (Q13547 whole entry): as the sequence (Q13547 whole entry) above
Method: as §2

HDAC6 [9] = molecular target: T6, HDAC6; parameters: method as in PMID 22262760; settings: cited from earlier work
[10] = THP-1, 120 h, ± standard deviation, three biological repeats
[11] = MOLM-13, 120 h, ± standard deviation, three biological repeats
[12] = K562, 120 h, ± standard deviation, three biological repeats
[13] = ± standard deviation, three biological repeats

| Compound | IC50 [1] | IC50 (HDAC-3/NcoR2) | IC50 (N-ter-GST-HDAC-6) | IC50 (C-terminal His-tag-HDAC8) | IC50 (THP-1; [10]) | IC50 (MOLM-13 [2]; [11]) | IC50 (K-562; [12]) | IC50 (Jurkat; [13]) | nuclear histone H3 acetylation (H3K18ac and H3K27ac levels), change vs DMSO ([3]; 4 μM) | cell viability after priming with compound and co-treatment with doxorubicin 2 nM (MOLM-13 [4]) | IC50 (LSD1 [6]) | thermal stabilization of LSD1 (CETSA) (LSD1 [7]) | thermal stabilization of HDAC6 (CETSA) (HDAC6 [8]) | thermal stabilization of HDAC1 (CETSA) (HDAC1) | further results |
| --- | --- | --- | --- | --- | --- | --- | --- | --- | --- | --- | --- | --- | --- | --- | --- |
| O=C(O)c1ccc(CN2CCC(CN[C@@H]3C[C@H]3c3ccccc3)CC2)cc1 [GSK2879552, reference compound] | > 100 µM | > 100 µM | > 100 µM | > 100 µM | > 20 µM | 15 ± 3.5 µM | > 20 µM | > 20 µM | did not significantly alter | relatively ineffective | 1.54 ± 0.41 µM | stabilizing LSD1 only |  |  | levels of the histone substrate H3K4me2 ([3]; 4 μM, 24 h): increase; inhibition of LSD2 (LSD2): undetectable levels of inhibition; inhibition of MAOs (MAOs): undetectable levels of inhibition; in vivo oral bioavailability [5]: favorable |
| COc1cccc2c1C(=O)c1c(O)c3c(c(O)c1C2=O)C[C@@](O)(C(=O)CO)C[C@@H]3O[C@H]1C[C@H](N)[C@H](O)[C@H](C)O1 [doxorubicin] |  |  |  |  |  |  |  |  |  |  |  |  |  |  | cells in the apoptosis/dead quadrant (caspase 3/7 staining), drug alone (THP-1 cells): 30% |
| O=C(O)c1ccc(CN2CCC(CNC3(c4ccccc4)CC3)CC2)cc1 [iNC] | > 100 µM | > 100 µM | > 100 µM | > 100 µM | > 20 µM | > 20 µM | > 20 µM | > 20 µM |  |  | > 100 µM | did not exhibit target engagement | did not exhibit target engagement | did not exhibit target engagement | thermal stabilization of HDAC8 (CETSA) (HDAC8): did not exhibit target engagement |
| O=C(CCCCCCNC(=O)c1cnc(N(c2ccccc2)c2ccccc2)nc1)NO [ricolinostat, reference compound] |  |  |  |  |  |  |  |  | greater effect | next in terms of activity |  |  | stabilizing HDAC6 | stabilized | IC50 (THP-1; THP-1, 120 h): 2.9 ± 0.1 µM; IC50 (MOLM-13 [2]; MOLM-13, 120 h): 0.2 ± 0.03 µM; IC50 (K-562; K562, 120 h): 2.6 ± 0.3 µM; IC50 (Jurkat): 1.9 ± 0.003 µM; acetylation levels of α-tubulin, fold increase vs DMSO ([3]; 4 μM, 24 h): 25 fold; acetylation levels of α-tubulin, fold increase vs DMSO ([3]; ~0.75 μM (similar fraction of IC50), 24 h): 20 fold; HDAC6/HDAC1 isoform selectivity reported (HDAC6 [9]): approximately 10 fold |
